Source: PubChem BioAssay AID330 (DTP/NCI, 2004)
“And” between values parts separate entries of the source, which are not always exact repeats. Equal values may be shown once. Toxic doses and inconclusive results are not listed. How the source made its calls: active means survival T/C of 150% or more; inactive means T/C below 125% in these data. Peptide text beside a SMILES is read from it. * marks the point of attachment. Cbz = O=C(OCc1ccccc1)*; CH2Cl = ClC*

Tested on: P388 leukemia ip, CD2F1 mice, survival T/C
Experiment: NCI In Vivo Anticancer Drug Screen. Data for tumor model P388 Leukemia (intraperitoneal) in CD2F1 (CDF1) mice
Settings: endpoint: median survival time, higher = longer survival
Procedure, shortened: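 Mice carrying the transplanted tumor received test compound or vehicle. Survival was recorded in each group, and the value is the treated-group measurement divided by that of the vehicle-treated control group.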

[1] = dose: 25.0 mg/kg/injection, schedule: Q01DX009 (ip), vehicle: saline with Tween-80
[2] = dose: 50.0 mg/kg/injection, schedule: Q01DX009 (ip), vehicle: saline with Tween-80
[3] = dose: 100.0 mg/kg/injection, schedule: Q01DX009 (ip), vehicle: saline with Tween-80
[4] = dose: 200.0 mg/kg/injection, schedule: Q01DX009 (ip), vehicle: saline with Tween-80
[5] = dose: 400.0 mg/kg/injection, schedule: Q01DX009 (ip), vehicle: saline with Tween-80
[6] = dose: 50.0 mg/kg/injection, schedule: Q01DX005 (ip), vehicle: Klucel (hydroxypropylcellulose) (HPC)
[7] = dose: 25.0 mg/kg/injection, schedule: Q01DX009 (ip), vehicle: saline
[8] = dose: 50.0 mg/kg/injection, schedule: Q01DX009 (ip), vehicle: saline
[9] = dose: 100.0 mg/kg/injection, schedule: Q01DX009 (ip), vehicle: saline
[10] = dose: 100.0 mg/kg/injection, schedule: Q04DX003 (ip), vehicle: saline
[11] = dose: 200.0 mg/kg/injection, schedule: Q04DX003 (ip), vehicle: saline
[12] = dose: 100.0 mg/kg/injection, schedule: Q01DX001 (ip), vehicle: Klucel (hydroxypropylcellulose) (HPC)
[13] = dose: 50.0 mg/kg/injection, schedule: Q01DX009 (ip), vehicle: Klucel (hydroxypropylcellulose) (HPC)
[14] = dose: 50.0 mg/kg/injection, schedule: Q01DX005 (ip), vehicle: saline with Tween-80
[15] = dose: 100.0 mg/kg/injection, schedule: Q01DX005 (ip), vehicle: saline with Tween-80
[16] = dose: 200.0 mg/kg/injection, schedule: Q01DX005 (ip), vehicle: saline with Tween-80

Measured: T/C

CCN(CC)CCOC(=O)C1c2ccccc2-c2ccccc21
inactive: dose: 50.0 mg/kg/injection, schedule: Q01DX005 (ip), vehicle: saline + Tween-80 + alcohol 99 % of control | dose: 100.0 mg/kg/injection, schedule: Q01DX005 (ip), vehicle: saline + Tween-80 + alcohol 95 % of control | dose: 200.0 mg/kg/injection, schedule: Q01DX005 (ip), vehicle: saline + Tween-80 + alcohol 103 % of control

CCOC1OCN(c2ccc(Cl)cc2)CC1(C)C (configuration not stated)
inactive: [1] 111 % of control | [2] 106 % of control and 107 % of control and 93 % of control | [3] 100 % of control and 119 % of control | [4] 101 % of control and 116 % of control | [5] 100 % of control and 110 % of control

COC(=O)/C=C1\C=CC=CC12C(C(=O)OC)c1ccccc1C(C(=O)OC)C2C(=O)OC (configuration not stated)
inactive: dose: 12.5 mg/kg/injection, schedule: Q01DX009 (ip), vehicle: saline with Tween-80 100 % of control | [1] 99 % of control | [2] 100 % of control

O=NN(C(=O)NCc1cccnc1)C1CCCCC1
inactive: dose: 25.0 mg/kg/injection, schedule: Q01DX001 (ip), vehicle: distilled water + Tween-80 115 % of control | dose: 50.0 mg/kg/injection, schedule: Q01DX001 (ip), vehicle: distilled water + Tween-80 110 % of control | dose: 100.0 mg/kg/injection, schedule: Q01DX001 (ip), vehicle: distilled water + Tween-80 106 % of control | dose: 200.0 mg/kg/injection, schedule: Q01DX001 (ip), vehicle: distilled water + Tween-80 102 % of control | dose: 400.0 mg/kg/injection, schedule: Q01DX001 (ip), vehicle: distilled water + Tween-80 102 % of control

CNC(C)C#N (configuration not stated)
inactive: dose: 3.75 mg/kg/injection, schedule: Q01DX005 (ip), vehicle: saline 94 % of control | dose: 7.5 mg/kg/injection, schedule: Q01DX005 (ip), vehicle: saline 100 % of control | dose: 15.0 mg/kg/injection, schedule: Q01DX005 (ip), vehicle: saline 102 % of control

CN1CC(O)C2=CC(=O)C(=O)C(I)=C21 (configuration not stated)
inactive: dose: 30.0 mg/kg/injection, schedule: Q01DX005 (ip), vehicle: saline + Tween-80 + alcohol 108 % of control | [6] 109 % of control | dose: 60.0 mg/kg/injection, schedule: Q01DX005 (ip), vehicle: saline + Tween-80 + alcohol 101 % of control | dose: 240.0 mg/kg/injection, schedule: Q01DX005 (ip), vehicle: saline + Tween-80 + alcohol 114 % of control

CC1CCCC(C)N1NC1=NCCO1 (configuration not stated)
inactive: dose: 25.0 mg/kg/injection, schedule: Q04DX003 (ip), vehicle: saline with Tween-80 104 % of control | dose: 50.0 mg/kg/injection, schedule: Q04DX003 (ip), vehicle: saline with Tween-80 95 % of control

CC(C)CC(NC(=O)OCc1ccccc1)C(=O)NC(Cc1ccccc1)C(=O)CCl (stereo not drawn) (Cbz-Leu-Phe-CH2Cl; configuration not given here)
inactive: dose: 6.25 mg/kg/injection, schedule: Q01DX009 (ip), vehicle: saline 107 % of control | dose: 12.5 mg/kg/injection, schedule: Q01DX009 (ip), vehicle: saline 106 % of control | [7] 111 % of control | [8] 113 % of control | [9] 120 % of control

NOCc1cccc(CON)c1
inactive: [2] 91 % of control

c1ccc(CCN2CCC3(CC2)COCc2ccccc23)cc1
inactive: dose: 100.0 mg/kg/injection, schedule: Q01DX001 (ip), vehicle: saline with Tween-80 96 % of control

CC1(C)COCN1CN1COCC1(C)C
inactive: dose: 0.78 mg/kg/injection, schedule: Q04DX003 (ip), vehicle: saline 100 % of control | dose: 1.56 mg/kg/injection, schedule: Q04DX003 (ip), vehicle: saline 101 % of control | dose: 3.13 mg/kg/injection, schedule: Q04DX003 (ip), vehicle: saline 100 % of control | dose: 12.5 mg/kg/injection, schedule: Q04DX003 (ip), vehicle: saline 111 % of control | dose: 25.0 mg/kg/injection, schedule: Q04DX003 (ip), vehicle: saline 102 % of control | dose: 50.0 mg/kg/injection, schedule: Q04DX003 (ip), vehicle: saline 120 % of control | [10] 123 % of control | [11] 107 % of control

CCOC(=O)/N=[N+](\[O-])c1ccc(Cl)cc1
inactive: [12] 100 % of control

CCOC1(NC(=O)N(C)C)C2CCCCC21 (configuration not stated)
inactive: [13] 98 % of control | dose: 100.0 mg/kg/injection, schedule: Q01DX009 (ip), vehicle: Klucel (hydroxypropylcellulose) (HPC) 104 % of control | dose: 200.0 mg/kg/injection, schedule: Q01DX009 (ip), vehicle: Klucel (hydroxypropylcellulose) (HPC) 101 % of control

CCOC(=O)CCSC(=O)NCCCCCCNC(=O)SCCC(=O)OCC
inactive: [6] 98 % of control | dose: 100.0 mg/kg/injection, schedule: Q01DX005 (ip), vehicle: Klucel (hydroxypropylcellulose) (HPC) 96 % of control | dose: 200.0 mg/kg/injection, schedule: Q01DX005 (ip), vehicle: Klucel (hydroxypropylcellulose) (HPC) 102 % of control

COc1cc2cnc(-c3ccncc3)cc2cc1OC
inactive: [10] 95 % of control | [11] 108 % of control

CCCCCCCCCCCCCCCCCc1cccc(O)c1
inactive: dose: 12.5 mg/kg/injection, schedule: Q01DX009 (ip), vehicle: Klucel (hydroxypropylcellulose) (HPC) 114 % of control | dose: 25.0 mg/kg/injection, schedule: Q01DX009 (ip), vehicle: Klucel (hydroxypropylcellulose) (HPC) 103 % of control | [13] 114 % of control

CC(=O)Nc1ccc(S(=O)(=O)N/N=C\c2cc([N+](=O)[O-])ccc2O)cc1
inactive: [14] 103 % of control | [15] 101 % of control | [16] 93 % of control

c1ccc(-c2[nH]c3ccccc3c2-c2c(-c3ccccc3)[nH]c3ccccc23)cc1
inactive: [8] 100 % of control | [9] 96 % of control | dose: 200.0 mg/kg/injection, schedule: Q01DX009 (ip), vehicle: saline 98 % of control

Nc1nc2ncnc(N)c2nc1-c1ccc(N(CCO)CCO)cc1
inactive: dose: 60.0 mg/kg/injection, schedule: Q01DX005 (ip), vehicle: Klucel (hydroxypropylcellulose) (HPC) 91 % of control | dose: 120.0 mg/kg/injection, schedule: Q01DX005 (ip), vehicle: Klucel (hydroxypropylcellulose) (HPC) 90 % of control | dose: 240.0 mg/kg/injection, schedule: Q01DX005 (ip), vehicle: Klucel (hydroxypropylcellulose) (HPC) 91 % of control

Cc1ccc(N2C(=O)CC3(CCCC3)C2=O)cc1C
inactive: dose: 100.0 mg/kg/injection, schedule: Q04DX003 (ip), vehicle: Klucel (hydroxypropylcellulose) (HPC) 100 % of control | dose: 200.0 mg/kg/injection, schedule: Q04DX003 (ip), vehicle: Klucel (hydroxypropylcellulose) (HPC) 98 % of control | dose: 400.0 mg/kg/injection, schedule: Q04DX003 (ip), vehicle: Klucel (hydroxypropylcellulose) (HPC) 98 % of control

Cc1ccccc1N=Nc1ccc(N(CCCl)CCCl)cc1
inactive: dose: 50.0 mg/kg/injection, schedule: Q01DX001 (ip), vehicle: Klucel (hydroxypropylcellulose) (HPC) 100 % of control | [12] 115 % of control | dose: 200.0 mg/kg/injection, schedule: Q01DX001 (ip), vehicle: Klucel (hydroxypropylcellulose) (HPC) 100 % of control

O=C(O)c1cc(-c2ccc(-c3ccc(-c4cc(C(=O)O)c5cc(Cl)ccc5n4)cc3)cc2)nc2ccc(Cl)cc12
inactive: [3] 92 % of control | [4] 94 % of control | [5] 109 % of control

CCN(CC)CCCNC(c1ccc(OC)c(OC)c1)C(Cl)(Cl)Cl (configuration not stated)
inactive: dose: 60.0 mg/kg/injection, schedule: Q01DX005 (ip), vehicle: saline 94 % of control | dose: 120.0 mg/kg/injection, schedule: Q01DX005 (ip), vehicle: saline 101 % of control

Cc1ccc(O)c2c(NCCCCCCNc3cc(C)[n+](C)c4c(C)ccc(O)c34)cc(C)[n+](C)c12
inactive: dose: 12.5 mg/kg/injection, schedule: Q01DX005 (ip), vehicle: saline with Tween-80 99 % of control | dose: 25.0 mg/kg/injection, schedule: Q01DX005 (ip), vehicle: saline with Tween-80 112 % of control | [14] 92 % of control

COc1ccc2nc(-n3[nH]c(C)c(-c4cc(C)[nH]n4)c3=O)cc(C)c2c1
inactive: [14] 91 % of control | [15] 91 % of control | [16] 90 % of control

CC(=O)c1cc(C)oc1C
inactive: [7] 100 % of control | [8] 100 % of control and 111 % of control and 112 % of control | [9] 109 % of control and 111 % of control and 112 % of control | dose: 400.0 mg/kg/injection, schedule: Q01DX009 (ip), vehicle: saline 116 % of control
